{
  "source": "BindingDB's records for doi:10.1016/j.ejmech.2017.11.048",
  "about": "(University of New Mexico, 2018)",
  "data": [
    {"target": "T1, Nuclear factor erythroid 2-related factor 2 (Homo sapiens, UniProt Q16236)", "T1 sequence (Q16236 whole entry)": "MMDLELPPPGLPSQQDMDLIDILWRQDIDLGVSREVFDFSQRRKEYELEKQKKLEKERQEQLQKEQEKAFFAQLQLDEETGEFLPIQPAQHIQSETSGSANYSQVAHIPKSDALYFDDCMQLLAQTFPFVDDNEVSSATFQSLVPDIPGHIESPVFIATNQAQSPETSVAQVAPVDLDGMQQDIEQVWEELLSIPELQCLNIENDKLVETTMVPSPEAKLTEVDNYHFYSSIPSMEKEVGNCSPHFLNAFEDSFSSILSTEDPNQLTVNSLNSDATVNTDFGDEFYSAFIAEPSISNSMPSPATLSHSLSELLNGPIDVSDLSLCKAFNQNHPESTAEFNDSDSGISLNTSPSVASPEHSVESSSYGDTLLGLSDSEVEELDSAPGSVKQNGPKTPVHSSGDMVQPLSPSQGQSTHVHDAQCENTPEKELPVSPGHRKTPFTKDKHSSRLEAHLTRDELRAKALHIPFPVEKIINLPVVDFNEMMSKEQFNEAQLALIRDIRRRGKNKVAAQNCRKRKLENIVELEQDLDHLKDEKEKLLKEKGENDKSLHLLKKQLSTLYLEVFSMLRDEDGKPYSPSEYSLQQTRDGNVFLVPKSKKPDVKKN", "test": "Activation of Nrf2 (unknown origin) expressed in human HepG2 cells after 5 hrs by ARE-driven luciferase reporter gene assay", "units": {"EC50": "µM"}, "values": [
      {"smiles": "COc1cc(/C=C/C(=O)/C=C/c2ccc(O)c(OC)c2)ccc1O", "note": "[(1E,4E)-1,5-Bis-(4-hydroxy-3-methoxy-phenyl)-penta-1,4-dien-3-one]", "EC50": 9.9},
      {"smiles": "COc1cc(OC)c(OC)cc1/C=C/C(=O)/C=C/c1cc(OC)c(OC)cc1OC", "note": "[Go-Y021]", "EC50": 1.32},
      {"smiles": "COc1cc(/C=C2\\CCC/C(=C\\c3cc(OC)cc(OC)c3)C2=O)cc(OC)c1", "EC50": 5.3},
      {"smiles": "Cc1ccc(C(=O)/C=C/c2ccccc2)c(C)c1", "EC50": 21.1},
      {"smiles": "O=C(/C=C/c1ccccc1O)/C=C/c1ccccc1O", "note": "[US9187397, 20q]", "EC50": 3.3},
      {"smiles": "COc1cc(/C=C/C(=O)CC(=O)/C=C/c2ccc(O)c(OC)c2)ccc1O", "note": "[CHEBI:3962]", "EC50": 21}
    ]}
  ]
}
